Where two headings read alike, the source gives them in different places.
Columns and labels:
MT P45014DM [1] = biological target: T1, MT P45014DM (Mycobacterium tuberculosis, UniProt P9WPP9); test: biochemical; type: binding; design: DNA segments encoding full length proteins preferably have a coding length on the order of about 1353 nucleotides; made in house; host or cells: E. coli HMS174, vector pet17b; conditions: for Kd: type I substrate-induced difference spectrum, 10 μM MT P45014DM, read-out: Ks value (binding constant), substrate
T1 sequence (P9WPP9 1-451): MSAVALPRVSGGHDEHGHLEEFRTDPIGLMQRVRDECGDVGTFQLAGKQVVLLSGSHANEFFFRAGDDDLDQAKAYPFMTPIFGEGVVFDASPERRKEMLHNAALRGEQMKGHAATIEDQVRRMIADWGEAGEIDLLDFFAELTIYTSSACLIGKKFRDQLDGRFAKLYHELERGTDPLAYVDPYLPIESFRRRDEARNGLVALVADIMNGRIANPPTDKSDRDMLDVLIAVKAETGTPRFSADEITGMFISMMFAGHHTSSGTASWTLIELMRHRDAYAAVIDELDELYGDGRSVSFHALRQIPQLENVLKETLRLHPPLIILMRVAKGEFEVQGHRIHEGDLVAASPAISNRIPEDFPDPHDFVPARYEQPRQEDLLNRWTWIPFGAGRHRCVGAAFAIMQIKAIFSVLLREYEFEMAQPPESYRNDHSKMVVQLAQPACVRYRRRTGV

MT P45014DM [2] = biological target: T1, MT P45014DM; test: Reconstituted catalytic activity: sterol 14α-demethylation by MT P45014DM; type: biochemical; design: DNA segments encoding full length proteins preferably have a coding length on the order of about 1353 nucleotides; made in house; host or cells: E. coli HMS174, vector pet17b
MT H37RA = test: Effect of azole inhibitors on growth of MT; type: cell-based, Mycobacterium tuberculosis
Method: The characterization of the CYP51 enzyme of the present invention in MT leads to the analysis of the function of this enzyme in the disease tuberculosis and of whether this enzyme represents a new drug target for the treatment of tuberculosis. Particularly, the effects of three azole inhibitors on the growth of MT H37RA, an alternated strain of MTH37R which is the pathogenic strain whose genomic sequence was determined by Cole et al., (1998) Nature […]:537-544 (bacterial strains provided by Dr. Dean Crick at Colorado State University) were examined.
As contemplated by applicants in accordance with the present invention, it was observed that ketoconazole has a profound effect on the growth of MT, stopping growth at about a 25 μM concentration. […] The targeting of ketoconazole to P45014DM in MT also leads to the identification of additional specific azole inhibitors which have far greater specificity for the MT CYP45014DM enzyme as compared to the human CYP45014DM enzyme. Such inhibitors therefore will have fewer side effects than less specific inhibitors. Thus, as described above, a method of screening for highly specific inhibitors of MT CYP45014DM in accordance with the screening methods described herein above comprises another aspect of the present invention.

MT P45014DM [3] = biological target: T1, MT P45014DM; test: biochemical; type: binding; design: DNA segments encoding full length proteins preferably have a coding length on the order of about 1353 nucleotides; made in house; host or cells: E. coli HMS174, vector pet17b
maize microsomes = conditions: Salmon et al. 1992; read-out: binding constant estimated for maize microsomes; cited from earlier work
[4] = biological target: T2, bovine 17α-hydroxylase P450 (bC17) (Bos taurus, UniProt P05185); test: CO-based reduction of 17α-hydroxylase P450 by electron donors (control); type: biochemical; conditions: compared to 100% determined by sodium hydrosulfite
T2 sequence (P05185 1-509): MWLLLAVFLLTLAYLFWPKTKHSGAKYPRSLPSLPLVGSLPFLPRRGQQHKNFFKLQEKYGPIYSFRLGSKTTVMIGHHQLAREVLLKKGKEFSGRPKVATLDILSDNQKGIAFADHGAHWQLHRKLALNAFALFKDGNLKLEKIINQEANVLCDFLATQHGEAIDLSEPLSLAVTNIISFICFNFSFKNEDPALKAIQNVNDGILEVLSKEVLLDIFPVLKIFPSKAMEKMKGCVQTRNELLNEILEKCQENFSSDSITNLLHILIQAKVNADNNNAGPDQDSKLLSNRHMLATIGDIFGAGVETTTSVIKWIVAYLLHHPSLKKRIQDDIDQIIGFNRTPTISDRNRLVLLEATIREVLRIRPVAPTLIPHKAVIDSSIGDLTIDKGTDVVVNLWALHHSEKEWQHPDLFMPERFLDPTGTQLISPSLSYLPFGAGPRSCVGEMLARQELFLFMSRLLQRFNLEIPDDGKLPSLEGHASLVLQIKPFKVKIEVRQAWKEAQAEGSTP

[5] = biological target: T3, cholesterol side chain cleavage P450 (SCC) (Bos taurus, UniProt P00189); test: CO-based reduction of cholesterol side chain cleavage P450 by electron donor (control); type: biochemical, bovine; conditions: compared to 100% determined by sodium hydrosulfite
T3 sequence (P00189 40-520): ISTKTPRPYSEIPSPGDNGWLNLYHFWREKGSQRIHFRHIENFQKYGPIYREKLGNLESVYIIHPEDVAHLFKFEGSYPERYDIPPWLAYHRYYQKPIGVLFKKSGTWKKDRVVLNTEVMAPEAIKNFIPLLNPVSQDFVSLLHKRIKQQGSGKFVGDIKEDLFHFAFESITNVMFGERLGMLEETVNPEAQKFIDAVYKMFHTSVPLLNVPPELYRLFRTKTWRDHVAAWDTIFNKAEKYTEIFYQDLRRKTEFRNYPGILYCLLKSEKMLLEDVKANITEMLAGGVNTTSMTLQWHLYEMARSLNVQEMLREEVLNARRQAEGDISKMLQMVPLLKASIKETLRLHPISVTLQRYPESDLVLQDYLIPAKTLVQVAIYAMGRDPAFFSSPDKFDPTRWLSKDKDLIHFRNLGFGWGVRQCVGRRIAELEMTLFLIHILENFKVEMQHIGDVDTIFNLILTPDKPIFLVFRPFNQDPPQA

MT P45014DM [6] = biological target: T1, MT P45014DM; conditions: compared to 100% determined by sodium hydrosulfite

## C=C(CC[C@@H](C)[C@H]1CC[C@@]2(C)C3=C(CC[C@]12C)[C@@]1(C)CC[C@H](O)[C@@H](C)[C@@H]1CC3)C(C)C [obtusifoliol]
MT P45014DM [1]
  sterol binding to the enzyme (yes/no): binds
  Kd: 350 ± 150 nM
MT P45014DM [2]
  Total product recovered from the quenched reaction mixtures: 98%

## CC(C)=CCC[C@@H](C)[C@H]1CC[C@H]2C3=C(CC[C@]12C)[C@@]1(C)CC[C@H](O)C[C@@H]1CC3 [zymosterol, 4,4,14-tridesmethyl lanosterol]
MT P45014DM [1]
  sterol binding to the enzyme (yes/no): Neither parkeol, cycloartenol, nor zymosterol (FIG. 3A) were found to bind

## CC(C)=CCC[C@@H](C)[C@H]1CC[C@@]2(C)[C@@H]3CC[C@H]4C(C)(C)[C@@H](O)CC[C@@]45C[C@@]35CC[C@]12C [cycloartenol]
MT P45014DM [1]
  sterol binding to the enzyme (yes/no): Neither parkeol, cycloartenol, nor zymosterol (FIG. 3A) were found to bind

## CC(C)=CCC[C@@H](C)[C@H]1CC[C@@]2(C)[C@@H]3CC[C@H]4C(C)(C)[C@@H](O)CC[C@]4(C)C3=CC[C@]12C [parkeol]
MT P45014DM [1]
  sterol binding to the enzyme (yes/no): Neither parkeol, cycloartenol, nor zymosterol (FIG. 3A) were found to bind

## CC(C)=CCC[C@@H](C)[C@H]1CC[C@@]2(C)C3=C(CC[C@]12C)[C@@]1(C)CC[C@H](O)C(C)(C)[C@@H]1CC3 [lanosterol]
MT P45014DM [1]
  sterol binding to the enzyme (yes/no): binds
  Kd: ~1000 nM
MT P45014DM [2]
  Total product recovered from the quenched reaction mixtures: 1%

## C=C(CC[C@@H](C)[C@H]1CC[C@@]2(C)C3=C(CC[C@]12C)[C@@]1(C)CC[C@H](O)C(C)(C)[C@@H]1CC3)C(C)C [24-methylene-dihydrolanosterol]
MT P45014DM [1]
  sterol binding to the enzyme (yes/no): did not bind

## CC(C)CCC[C@@H](C)[C@H]1CC[C@@]2(C)C3=C(CC[C@]12C)[C@@]1(C)CC[C@H](O)C(C)(C)[C@@H]1CC3 [DHL, 24,25-dihydrolanosterol]
MT P45014DM [1]
  sterol binding to the enzyme (yes/no): binds
  Kd: ~1000 nM
MT P45014DM [2]
  Total product recovered from the quenched reaction mixtures: 20%

## CC(=O)N1CCN(c2ccc(OCC3COC(Cn4ccnc4)(c4ccc(Cl)cc4Cl)O3)cc2)CC1 (stereo not shown) [ketoconazole]
MT H37RA
  concentration stopping growth of MT: ~25 µM
MT P45014DM [3]
  Kd: ~5000 nM
MT P45014DM [2]
  inhibition of the 14α-demethylation of DHL: inhibit
Maize microsomes
  Kd: 10000 nM

B1: Fld/Fdr: E. coli flavodoxin/flavodoxin reductase two-component electron donor system (protein, UniProt P61949 2-176; P28861 2-248, looked up)
Flavodoxin 1: AITGIFFGSDTGNTENIAKMIQKQLGKDVADVHDIAKSSKEDLEAYDILLLGIPTWYYGEAQCDWDDFFPTLEEIDFNGKLVALFGCGDQEDYAEYFCDALGTIRDIIEPRGATIVGHWPTAGYHFEASKGLADDDHFVGLAIDEDRQPELTAERVEKWVKQISEELHLDEILNA
Flavodoxin/ferredoxin--NADP …: ADWVTGKVTKVQNWTDALFSLTVHAPVLPFTAGQFTKLGLEIDGERVQRAYSYVNSPDNPDLEFYLVTVPDGKLSPRLAALKPGDEVQVVSEAAGFFVLDEVPHCETLWMLATGTAIGPYLSILQLGKDLDRFKNLVLVHAARYAADLSYLPLMQELEKRYEGKLRIQTVVSRETAAGSLTGRIPALIESGELESTIGLPMNKETSHVMLCGNPQMVRDTQQLLKETRQMTKHLRRRPGHMTAEHYW
[4]
  reduction of bC17 (reduced-CO spectrum): 77%

B2: Adx/Adr: bovine adrenodoxin/adrenodoxin reductase electron donor system (protein, UniProt P00257 59-186; P08165 33-492, looked up)
Adrenodoxin, mitochondrial: SSSEDKITVHFINRDGETLTTKGKIGDSLLDVVVQNNLDIDGFGACEGTLACSTCHLIFEQHIFEKLEAITDEENDMLDLAYGLTDRSRLGCQICLTKAMDNMTVRVPDAVSDARESIDMGMNSSKIE
NADPH:adrenodoxin …: STQEQTPQICVVGSGPAGFYTAQHLLKHHSRAHVDIYEKQLVPFGLVRFGVAPDHPEVKNVINTFTQTARSDRCAFYGNVEVGRDVTVQELQDAYHAVVLSYGAEDHQALDIPGEELPGVFSARAFVGWYNGLPENRELAPDLSCDTAVILGQGNVALDVARILLTPPDHLEKTDITEAALGALRQSRVKTVWIVGRRGPLQVAFTIKELREMIQLPGTRPMLDPADFLGLQDRIKEAARPRKRLMELLLRTATEKPGVEEAARRASASRAWGLRFFRSPQQVLPSPDGRRAAGIRLAVTRLEGIGEATRAVPTGDVEDLPCGLVLSSIGYKSRPIDPSVPFDPKLGVVPNMEGRVVDVPGLYCSGWVKRGPTGVITTTMTDSFLTGQILLQDLKAGHLPSGPRPGSAFIKALLDSRGVWPVSFSDWEKLDAEEVSRGQASGKPREKLLDPQEMLRLLGH
modifications: two-protein electron donor system
[5]
  reduction of SCC (reduced-CO spectrum): 80%
MT P45014DM [6]
  reduction of MT P45014DM (reduced-CO spectrum): n.r.

B3: rat P450 reductase: rat microsomal NADPH cytochrome P450 reductase (protein, UniProt P00388 2-678, looked up)
NADPH--cytochrome P450 …: GDSHEDTSATMPEAVAEEVSLFSTTDMVLFSLIVGVLTYWFIFRKKKEEIPEFSKIQTTAPPVKESSFVEKMKKTGRNIIVFYGSQTGTAEEFANRLSKDAHRYGMRGMSADPEEYDLADLSSLPEIDKSLVVFCMATYGEGDPTDNAQDFYDWLQETDVDLTGVKFAVFGLGNKTYEHFNAMGKYVDQRLEQLGAQRIFELGLGDDDGNLEEDFITWREQFWPAVCEFFGVEATGEESSIRQYELVVHEDMDVAKVYTGEMGRLKSYENQKPPFDAKNPFLAAVTANRKLNQGTERHLMHLELDISDSKIRYESGDHVAVYPANDSALVNQIGEILGADLDVIMSLNNLDEESNKKHPFPCPTTYRTALTYYLDITNPPRTNVLYELAQYASEPSEQEHLHKMASSSGEGKELYLSWVVEARRHILAILQDYPSLRPPIDHLCELLPRLQARYYSIASSSKVHPNSVHICAVAVEYEAKSGRVNKGVATSWLRAKEPAGENGGRALVPMFVRKSQFRLPFKSTTPVIMVGPGTGIAPFMGFIQERAWLREQGKEVGETLLYYGCRRSDEDYLYREELARFHKDGALTQLNVAFSREQAHKVYVQHLLKRDREHLWKLIHEGGAHIYVCGDARNMAKDVQNTFYDIVAEFGPMEHTQAVDYVKKLMTKGRYSLDVWS
[4]
  reduction of bC17 (reduced-CO spectrum): 73%
MT P45014DM [6]
  reduction of MT P45014DM (reduced-CO spectrum): n.r.
